Measurements: patent US20080287515A1, “Topical compositions containing metronidazole” (priority 2007, published 2008)

How the values were obtained:
[1] = Physical stability test of aqueous metronidazole compositions (crystal formation or precipitation); type: physicochemical; details: for Concentration required to obtain a stable aqueous solution of 1.0% metronidazole: as the only solubility enhancing agent
Protocol: The solubility enhancing effect of the combination of urea and hydroxyalkyl urea in increasing the solubility of metronidazole in the aqueous compositions is evaluated by physical stability of the prepared compositions.
Therefore, the formulations are subject to a physical stability test. The protocol for the stability test is as follows: metronidazole and the solubility enhancing agents are combined with water either at room temperature or elevated temperature while stirring until dissolved. The solutions are permitted to cool to room temperature. Customary auxiliaries and additives may be added to the aqueous solutions containing solubilized metronidazole and solubility enhancing agents. The solutions may be gelled by using the suitable gelling agents. The compositions both in gel or solution form are then packaged in clear glass vials and sealed. The vials are kept at room temperature for 24 hours and monitored for crystal formation or precipitation. After 24 hours, the vials are placed in a refrigerator maintained at a temperature of about 4° C. for 7 days. After 7 days, the vials are removed from the refrigerator. Evidence of crystal formation or precipitation in the compositions is examined.
(§1) Each formulation was prepared by combining urea and metronidazole in water (q.s 100%). The mixture was kept at a temperature of about 45° C. while stirring until dissolved. The solutions were permitted to cool to room temperature, packaged and sealed in glass vials. The stability tests described in Example 1 were performed and the test results were recorded.
as §1, with “combining N-2-hydroxyethyl” for “combining”, “45°C.” for “45° C.”
as §1, with “N-2-hydroxyethyl urea, urea,” for “urea”, “kept either at room temperature or” for “kept”, “recorded. […]” for “recorded.”

[2] = at 25 °C; cited from earlier work

SMILES: NC(=O)NCCO [N-2-hydroxyethyl urea]
- Concentration required to obtain a stable aqueous solution of 1.0% metronidazole [1]: about 16%
- Concentration of N-2-hydroxyethyl urea needed to obtain a stable aqueous solution of 1.0% metronidazole ([1]; concentration of urea is 1.0%): ≥ 9.0%

SMILES: NC(N)=O [urea]
- Water solubility limit [2]: about 50 % by weight
- Concentration required to obtain a stable aqueous solution of 1.0% metronidazole [1]: about 10%
- Concentration of urea needed to obtain a stable aqueous solution of 1.0% metronidazole ([1]; concentration of N-2-hydroxyethyl urea is 1.0%): ≥ 8.0%
- N-2-hydroxyethyl urea functionally equivalent to 1% urea in inducing the solubility enhancing effect ([1]; from Examples 2 and 3): about 1.6%

SMILES: Cc1ncc([N+](=O)[O-])n1CCO [Metronidazole, 1-(2-hydroxyethyl)-2-methyl-5-nitroimidazole]
- Results from stability test ([1]; 1.0% N-2-hydroxyethyl urea, 7.0% urea, 1.0% metronidazole in water, 7 days at about 4 °C): Crystals
- Results from stability test ([1]; 1.0% N-2-hydroxyethyl urea, 8.0% urea, 1.0% metronidazole in water, 7 days at about 4 °C): Clear
- Results from stability test ([1]; 1.0% N-2-hydroxyethyl urea, 9.0% urea, 1.0% metronidazole in water, 7 days at about 4 °C): Clear
- Results from stability test ([1]; 5.0% N-2-hydroxyethyl urea, 2.0% urea, 1.0% metronidazole in water, 7 days at about 4 °C): Clear
- Results from stability test ([1]; 5.0% N-2-hydroxyethyl urea, 2.0% urea, 1.0% metronidazole in water, 7 days at about 4 °C, listed as metronidazole): stable
- Results from stability test ([1]; 5.0% N-2-hydroxyethyl urea, 3.0% urea, 1.0% metronidazole in water, 7 days at about 4 °C): Clear
- Results from stability test ([1]; 5.0% N-2-hydroxyethyl urea, 4.0% urea, 1.0% metronidazole in water, 7 days at about 4 °C): Clear
- Results from stability test ([1]; 5.0% N-2-hydroxyethyl urea, 5.0% urea, 1.0% metronidazole in water, 7 days at about 4 °C): Clear
- Results from stability test ([1]; 7% urea, 1.0% metronidazole in water, 24 h room temperature then 7 days at about 4 °C): Crystals formed
- Results from stability test ([1]; 8.0% N-2-hydroxyethyl urea, 1.0% urea, 1.0% metronidazole in water, 7 days at about 4 °C): Crystals
- Results from stability test ([1]; 8.0% N-2-hydroxyethyl urea, 8.0% urea, 1.2% metronidazole in water, 7 days at about 4 °C): Clear
- Results from stability test ([1]; 8% urea, 1.0% metronidazole in water, 24 h room temperature then 7 days at about 4 °C): Crystals formed
- Results from stability test ([1]; 9.0% N-2-hydroxyethyl urea, 1.0% urea, 1.0% metronidazole in water, 7 days at about 4 °C): Crystals
- Results from stability test ([1]; 9% urea, 1.0% metronidazole in water, 24 h room temperature then 7 days at about 4 °C): Crystals formed
- Results from stability test ([1]; 10.0% N-2-hydroxyethyl urea, 1.0% urea, 1.0% metronidazole in water, 7 days at about 4 °C): Clear
- Results from stability test ([1]; 10% urea, 1.0% metronidazole in water, 24 h room temperature then 7 days at about 4 °C): Clear
- Results from stability test ([1]; 13% N-2-hydroxyethyl urea, 1.0% metronidazole in water, 24 h room temperature then 7 days at about 4 °C): Crystals formed
- Results from stability test ([1]; 14% N-2-hydroxyethyl urea, 1.0% metronidazole in water, 24 h room temperature then 7 days at about 4 °C): Crystals formed
- Results from stability test ([1]; 15% N-2-hydroxyethyl urea, 1.0% metronidazole in water, 24 h room temperature then 7 days at about 4 °C): Crystals formed
- Results from stability test ([1]; 16% N-2-hydroxyethyl urea, 1.0% metronidazole in water, 24 h room temperature then 7 days at about 4 °C): Clear
